Measurements published in PMC7155171, “Probing the Open Global Health Chemical Diversity Library for Multistage-Active Starting Points for Next-Generation Antimalarials” (ACS Infectious Diseases, 2020).
Like-named read-outs stand apart in the source and are kept apart here.

Key:
P. falciparum Dd2 = assay: SYBR green I asexual blood stage proliferation assay (96 h); format: cell-based, Plasmodium falciparum; details: for IC50 / Emax: Plasmodium falciparum
[1] = tested on: P. falciparum Dd2 (PfLuc) line expressing firefly luciferase, asexual blood stage; assay: microbe, parasite or virus in culture; format: cell-based, Plasmodium falciparum; details: Plasmodium falciparum
[2] = DD2, Sybr Green I, 11-pt dose response, 96hr, read-out: CDD P. falciparum Sybr Green I ABS 11-pt Reconfirmation Dose Response (96hr): IC50
[3] = DD2, Sybr Green I, 11-pt dose response, 96hr, read-out: CDD P. falciparum Sybr Green I ABS 11-pt Reconfirmation Dose Response (96hr): Maximum inhibition (%)
[4] = DD2, read-out: CDD P. falciparum Luciferase ABS 11-pt Reconfirmation Dose Response (48hr): IC50 (μM), 11-pt dose response, 48hr
[5] = DD2, 8-pt dose response, 96hr, read-out: CDD P. falciparum Luciferase ABS 8-pt Reconfirmation Dose Response (96hr): IC50
[6] = DD2, 8-pt dose response, 96hr, read-out: CDD P. falciparum Luciferase ABS 8-pt Reconfirmation Dose Response (96hr): Maximum inhibition (%)
[7] = DD2, 11-pt dose response, 48hr, read-out: CDD P. falciparum Luciferase ABS 11-pt Reconfirmation Dose Response (48hr): Maximum inhibition (%)
[8] = DD2, 11-pt dose response, 96hr, read-out: CDD P. falciparum Luciferase ABS 11-pt Reconfirmation Dose Response (96hr): IC50
[9] = DD2, 11-pt dose response, 96hr, read-out: CDD P. falciparum Luciferase ABS 11-pt Reconfirmation Dose Response (96hr): Maximum inhibition (%)
[10] = DD2, 11-pt dose response, 96hr, read-out: P. falciparum Sybr Green I ABS 11-pt Reconfirmation Dose Response (96hr): IC50
[11] = DD2, 11-pt dose response, 96hr, read-out: P. falciparum Sybr Green I ABS 11-pt Reconfirmation Dose Response (96hr): Maximum inhibition (%)
[12] = DD2, read-out: P. falciparum Luciferase ABS 11-pt Reconfirmation Dose Response (48hr): IC50, 11-pt dose response, 48hr
[13] = DD2, 8-pt dose response, 96hr, read-out: P. falciparum Luciferase ABS 8-pt Reconfirmation Dose Response (96hr): IC50
[14] = DD2, 8-pt dose response, 96hr, read-out: P. falciparum Luciferase ABS 8-pt Reconfirmation Dose Response (96hr): Maximum inhibition (%)
[15] = DD2, 11-pt dose response, 48hr, read-out: P. falciparum Luciferase ABS 11-pt Reconfirmation Dose Response (48hr): Maximum inhibition (%)
[16] = DD2, 11-pt dose response, 96hr, read-out: P. falciparum Luciferase ABS 11-pt Reconfirmation Dose Response (96hr): IC50

Compound | IC50 (P. falciparum Dd2; [2]) [nM] | Emax (P. falciparum Dd2; [3]) [%] | IC50 [1, 4] [µM] | IC50 [1, 5] [µM] | Emax [1, 6] [%] | Emax [1, 7] [%] | IC50 [1, 8] [µM] | Emax [1, 9] [%] | also measured
Clc1ccccc1C1(c2ccnc(CC3CC3)n2)CCNCC1 [DDD01257764] | 422 | 70.6 | 3.74 | 0.27 | 92.2 | 90.6 | 0.581 | 98 | IC50 ([1]; 96 h incubation, Dd2 luciferase, read-out: 96 hour Pfluc IC50): 0.58 µM
Nc1cc(-c2c[nH]nc2C2CCCN2CCCc2ccccc2)ccn1 (stereo not drawn) [DDD01057437] | 2260 | 96.1 | 3.06 | 0.59 | 96.2 | 63 | 0.669 | 100 | 
Fc1cccc(F)c1Cn1c(C2CCNCC2)cc2cccnc21 [DDD01057378] | 570 | 68.3 | 1.51 | 0.36 | 91.4 | 76 | 0.733 | 92.1 | 
CC(NCCN1CCC(N(C)C)CC1)c1ccc(Cl)s1 (stereo not drawn) [DDD01077862] | 2870 | 89 | 4.33 | 0.92 | 87.7 | 83.2 | 1.35 | 97.3 | 
O=C(Nc1ccc(OC2CCCC2)cc1)C1CCCN1c1nccs1 (stereo not drawn) [DDD01297375, O=C(Nc1ccc(OC2CCCC2)cc1)C1CCCN1c1nccs1] |  |  |  |  |  |  |  |  | CDD P. falciparum Sybr Green I ABS Dd2 Dose Response: Maximum measured (%) (P. falciparum Dd2; Dd2, 96 h): 45.3%; IC50 (P. falciparum Dd2; DD2, 96 h, read-out: CDD P. falciparum Sybr Green I ABS Dd2 Dose Response: IC50): > 12500 nM; IC50 ([1]; DD2, read-out: CDD P. falciparum Luc 11pt dose response (96hr, n=2): IC50 (μM), 96hr, 11-point, n=2): 0.0372 µM; IC50 ([1]; DD2, read-out: CDD P. falciparum Luciferase 11pt dose response (48hr, n=2): IC50 (μM), 48hr, 11-point, n=2): > 10 µM; Emax ([1]; DD2, 48hr, 11-point, read-out: CDD P. falciparum Luciferase ABS 11-pt Reconfirmation Dose Response (48hr): Maximum inhibition (%)): 50%; Emax ([1]; DD2, 96hr, 11-point, read-out: CDD P. falciparum Luciferase ABS 11-pt Reconfirmation Dose Response (96hr): Maximum inhibition (%)): 94.7%
CCc1cc(CNCc2ccccc2N(C)C2CCN(C)CC2)on1 [DDD01074859] | 9570 | 72 | > 12.5 | 0.92 | 83.3 | 55.6 | 3.22 | 82 | 
COc1ccc(N2CCCC3(C2)CN(c2nncs2)CCO3)cc1 (stereo not drawn) [DDD01034473] | 830 | 95.3 | 0.758 | 0.2 | 95 |  | 0.451 | 97.9 | 
COc1cccc(CNCc2ccc(F)cc2Cl)c1O [DDD01038249] | > 4160 | 92.8 | > 4.16 | 0.94 | 87.2 | 36 | 2.78 | 95.4 | 
CC(NCC1CCN(CCO)CC1)c1cccc(Cl)c1 (stereo not drawn) [DDD01073717] | 1320 | 92.1 | 3.01 | 0.56 | 94.9 | 93.9 | 0.988 | 99.8 | 
Cn1cc(CN2CCCC(CCc3ccccc3C(F)(F)F)C2)cn1 (stereo not drawn) [DDD01243772] |  |  |  |  |  |  |  |  | IC50 (P. falciparum Dd2; [10]): 4890 nM; Emax (P. falciparum Dd2; [11]): 62%; IC50 [1, 12]: 4.26 µM; IC50 [1, 13]: 1.59 µM; Emax [1, 14]: 82.8%; Emax [1, 15]: 66.1%; IC50 [1, 16]: 4.34 µM
CCN1CC(c2ccccc2)CC2(CCN(Cc3ncc[nH]3)CC2)C1 (stereo not drawn) [DDD01246660] | 3390 | 89.2 | 7.46 | 0.79 | 90.9 | 59 | 3.35 | 85.5 | 
OCC1CCCCN1c1ccc(-c2nc(-c3ccccc3F)no2)cn1 (stereo not drawn) [DDD01257937] | > 12500 | 41.3 | 1.36 | 0.46 | 90.5 | 83.7 | 1.23 | 89.1 | 
Brc1ccc(C2(CNCc3cc[nH]c3)CCOCC2)cc1 [DDD01076992] | 3080 | 54 | 0.715 | 0.62 | 82.1 | 95.6 | 0.407 | 99.6 | 
Fc1ccccc1Cn1c(C2CCNCC2)cc2cccnc21 [DDD01057236] | 7030 | 70.6 | 3.02 | 0.41 | 92.4 | 64.7 | 1.41 |  | 
COc1cccc(CNCc2ccc(F)c(Cl)c2)c1O [DDD01038250] | 1970 | 98.2 | 3.18 | 0.56 | 93.8 | 93.8 | 1.4 | 99.2 | 
CN(CCO)C[C@@H]1CN(C2CCN(c3ccccc3Cl)CC2)C[C@@H]1CO [DDD01243670] | 1340 | 86.9 | 0.887 | 0.4 | 94.9 | 96.9 | 0.653 | 99.6 | 
CC(C)Nc1cc(-c2c[nH]nc2C2CCN(C(=O)C3CC3)C2)ccn1 (stereo not drawn) [DDD01057305] | 8070 | 76.9 | 5.35 | 0.29 | 95.7 |  | 1.73 | 98.4 | 
Oc1ccc(Cl)cc1CNCc1ccccc1Cl [DDD01038243] | > 12500 | 34.6 | > 12.5 | 1.02 | 90.3 | 59.4 | 4.2 | 88.4 | 
CN(Cc1ccccc1-n1cccn1)C[C@@H]1CCCN2CCCC[C@H]12 [DDD01246904] |  |  |  |  |  |  |  |  | IC50 (P. falciparum Dd2; [10]): 8420 nM; Emax (P. falciparum Dd2; [11]): 72.9%; IC50 [1, 12]: > 12.5 µM; IC50 [1, 13]: 1.88 µM; Emax [1, 14]: 85.8%; Emax [1, 15]: 53.8%; IC50 [1, 16]: 3.73 µM; Emax ([1]; DD2, 11-pt dose response, 96hr, read-out: P. falciparum Luciferase ABS 11-pt Reconfirmation Dose Response (96hr): Maximum inhibition (%)): 73.6%
FC(F)(F)c1cc(C2CCNCC2)nc(-c2ccsc2)n1 [DDD01058935] | 4360 | 60.5 | > 12.5 | 0.67 |  | 64.4 | > 1.39 | 92.1 | 
CCOc1cccc(CN2CCCC(Nc3ccc(F)cc3)C2)c1O (stereo not drawn) [DDD01252745] | 1880 | 98.6 | 1.43 | 0.6 | 93.4 | 96.3 | 0.703 | 99.7 | 
c1ccc(Oc2nccc3occc23)c(CN2CCCCC2)c1 [DDD01249169] | 7190 | 73.8 | > 12.5 | 0.69 | 87.1 | 34.1 | 1.52 | 78.9 | 
c1ccc(N2CCCC3(CCN(Cc4ccsc4)C3)C2)nc1 (stereo not drawn) [DDD01029521] | 1880 | 66.8 | 3.75 | 1.02 | 83.9 | 64.3 | 2.51 | 86.9 | 
Cc1cc2nc(-c3cn(C4CCNCC4)nn3)[nH]c2cc1C [DDD01250700] | 3230 | 82 | 2.08 | 0.34 | 95.8 | 61.5 | 1.01 | 98.7 | 
Nc1nc2c(c(N3CCCC(c4nnc5ccccn45)C3)n1)CCNC2 (stereo not drawn) [DDD01254485] | > 12500 | 52.8 | > 12.5 | 0.18 | 90.3 | 46.1 | 0.312 | 95.2 | 
Cc1cc(C)c(N(CC(O)CNCc2ccccc2)S(C)(=O)=O)c(C)c1 (stereo not drawn) [DDD01027603] | 4910 | 81.7 | 2.17 | 0.51 | 90.1 | 75 | 0.829 | 90.9 | 
Cc1ccc(CN(c2cc(C)nc3nc(C(F)(F)F)nn23)C2CC2)cc1 [DDD01063654] | 2100 |  | 2.34 | 0.37 |  | 89.4 | 0.45 | 99.7 | 
CC(NCCc1nccn1Cc1ccccc1)c1ccsc1 (stereo not drawn) [DDD01065612] | 960 | 77.4 | 4.05 | 1.09 | 87.3 | 68.1 | 0.666 | 88.3 | 
